Consider 1 compound from patent publication US20110144578A1, “HYDROPHOBIC THERAPUEUTIC AGENT AND SOLID EMULSIFIER COATING FOR DRUG COATED BALLOON” (priority 2009, published 2011).

One series can be described thus: physchem. The settings on record: water. The source says: Using the Stokes-Einstein equation as a simple model, diffusion coefficients are approximately proportional to the molecular weight of a species raised to the −⅓ power. Thus, individual molecules or micelles, which are low in molecular weight, tend to diffuse much faster than microspheres or nanoparticles, which are much higher in molecular weight.

Series [1] can be described thus: Solubility enhancement screening in 5% (w/w) excipient solutions in phosphate buffered saline, HPLC of supernatant. The class given is physicochemical. The settings on record: aqueous buffer, thermodynamic from solid, 37° C., n = 3, read-out: Zotarolimus Solubility. The procedure: Emulsifier candidates can be screened by measuring the degree to which they can enhance the solubility of the therapeutic agent. One way to accomplish this is to make 5% (w/w) solutions of the emulsifiers of interest in a phosphate buffered saline solution. An excess amount of drug is added to the solution and incubated with stirring at 37° C. After centrifugation to precipitate all solids, the supernatant is assayed by HPLC for the drug concentration.

≈ marks a conversion by molar mass, not a printed value.

Consider `CO[C@H]1C[C@@H]2CC[C@@H](C)[C@@](O)(O2)C(=O)C(=O)N2CCCC[C@H]2C(=O)O[C@H]([C@H](C)C[C@@H]2CC[C@H](n3cnnn3)[C@H](OC)C2)CC(=O)[C@H](C)/C=C(\C)[C@@H](O)[C@@H](OC)C(=O)[C@H](C)C[C@H](C)/C=C/C=C/C=C/1C` [Zotarolimus, zotarolimus], for which the values for the solubility (in the series “physchem”; in series [1]) were 0.5 µg/mL (≈ 0.517 µM) and 0.53 µg/mL, respectively.
